This is an account of results in PMC7192623, “Regulation of the RNA and DNA nuclease activities required for Pyrococcus furiosus Type III-B CRISPR–Cas immunity” (Nucleic Acids Research, 2020).

Test [1] addresses T1, Pfu Csx1 (Pyrococcus furiosus, UniProt Q8U1S8).
T1 construct: gene PF1127; full-length, N-terminal 6x-His tag, modified pET24-D, expressed in E. coli BL21-RIPL (DE3)
T1 sequence (Q8U1S8 1-478): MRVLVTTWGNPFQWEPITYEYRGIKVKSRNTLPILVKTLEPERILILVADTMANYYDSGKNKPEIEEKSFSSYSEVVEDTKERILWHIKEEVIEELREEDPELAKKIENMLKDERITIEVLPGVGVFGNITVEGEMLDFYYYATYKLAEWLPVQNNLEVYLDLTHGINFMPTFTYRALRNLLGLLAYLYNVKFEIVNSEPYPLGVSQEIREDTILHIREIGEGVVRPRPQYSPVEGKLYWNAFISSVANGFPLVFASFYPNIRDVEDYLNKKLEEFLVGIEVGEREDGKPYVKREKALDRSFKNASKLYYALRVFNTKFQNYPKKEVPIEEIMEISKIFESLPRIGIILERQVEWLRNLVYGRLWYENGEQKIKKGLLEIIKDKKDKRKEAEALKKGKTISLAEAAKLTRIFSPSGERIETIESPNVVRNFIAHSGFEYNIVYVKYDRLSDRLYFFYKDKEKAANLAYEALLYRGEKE
As to the kind of experiment: RNase activation assay, […]'-32P-labelled target RNA, urea-PAGE. Format: biochemical. As to conditions: allosteric activator via CARF domain; synthetic cA4 at 1.85, 18.5 and 185 pM; 20 nM Csx1; 20 mM Tris-HCl pH 7.5, 200 mM NaCl, 70 °C.

Test [2] deals with T1, Pfu Csx1. Put plainly: cleavage of radiolabelled Cmr-produced native cOA, sequencing gel. In kind it is biochemical. As to conditions: HEPN active site; labelled compound; native cOA preparation (mainly cA4, also cA3), product presumed A2>p; 70 °C.

As to `Nc1ncnc2c1ncn2[C@@H]1O[C@@H]2COP(=O)(O)O[C@H]3[C@@H](O)[C@H](n4cnc5c(N)ncnc54)O[C@@H]3COP(=O)(O)O[C@H]3[C@@H](O)[C@H](n4cnc5c(N)ncnc54)O[C@@H]3COP(=O)(O)O[C@H]3[C@@H](O)[C@H](n4cnc5c(N)ncnc54)O[C@@H]3COP(=O)(O)O[C@H]2[C@H]1O` [cA4], the “RNase activation assay, 5'-32P-labelled target RNA, urea-PAGE” value at Pfu Csx1 [1] is reported as “cA4 but not cA6 stimulated the ribonuclease activity of Csx1”. Moreover, the “cleavage of radiolabelled Cmr-produced native cOA, sequencing gel” value at Pfu Csx1 [2] is “also degrades its cognate cyclic-tetra-AMP (cA4) activator to switch off the signaling pathway”.
